{"source": "patent US20220388964A1", "about": "(HiberCell, Inc., priority 2019, published 2022)", "target": "GCN2 (Homo sapiens, UniProt Q9P2K8)", "sequence (Q9P2K8 whole entry)": "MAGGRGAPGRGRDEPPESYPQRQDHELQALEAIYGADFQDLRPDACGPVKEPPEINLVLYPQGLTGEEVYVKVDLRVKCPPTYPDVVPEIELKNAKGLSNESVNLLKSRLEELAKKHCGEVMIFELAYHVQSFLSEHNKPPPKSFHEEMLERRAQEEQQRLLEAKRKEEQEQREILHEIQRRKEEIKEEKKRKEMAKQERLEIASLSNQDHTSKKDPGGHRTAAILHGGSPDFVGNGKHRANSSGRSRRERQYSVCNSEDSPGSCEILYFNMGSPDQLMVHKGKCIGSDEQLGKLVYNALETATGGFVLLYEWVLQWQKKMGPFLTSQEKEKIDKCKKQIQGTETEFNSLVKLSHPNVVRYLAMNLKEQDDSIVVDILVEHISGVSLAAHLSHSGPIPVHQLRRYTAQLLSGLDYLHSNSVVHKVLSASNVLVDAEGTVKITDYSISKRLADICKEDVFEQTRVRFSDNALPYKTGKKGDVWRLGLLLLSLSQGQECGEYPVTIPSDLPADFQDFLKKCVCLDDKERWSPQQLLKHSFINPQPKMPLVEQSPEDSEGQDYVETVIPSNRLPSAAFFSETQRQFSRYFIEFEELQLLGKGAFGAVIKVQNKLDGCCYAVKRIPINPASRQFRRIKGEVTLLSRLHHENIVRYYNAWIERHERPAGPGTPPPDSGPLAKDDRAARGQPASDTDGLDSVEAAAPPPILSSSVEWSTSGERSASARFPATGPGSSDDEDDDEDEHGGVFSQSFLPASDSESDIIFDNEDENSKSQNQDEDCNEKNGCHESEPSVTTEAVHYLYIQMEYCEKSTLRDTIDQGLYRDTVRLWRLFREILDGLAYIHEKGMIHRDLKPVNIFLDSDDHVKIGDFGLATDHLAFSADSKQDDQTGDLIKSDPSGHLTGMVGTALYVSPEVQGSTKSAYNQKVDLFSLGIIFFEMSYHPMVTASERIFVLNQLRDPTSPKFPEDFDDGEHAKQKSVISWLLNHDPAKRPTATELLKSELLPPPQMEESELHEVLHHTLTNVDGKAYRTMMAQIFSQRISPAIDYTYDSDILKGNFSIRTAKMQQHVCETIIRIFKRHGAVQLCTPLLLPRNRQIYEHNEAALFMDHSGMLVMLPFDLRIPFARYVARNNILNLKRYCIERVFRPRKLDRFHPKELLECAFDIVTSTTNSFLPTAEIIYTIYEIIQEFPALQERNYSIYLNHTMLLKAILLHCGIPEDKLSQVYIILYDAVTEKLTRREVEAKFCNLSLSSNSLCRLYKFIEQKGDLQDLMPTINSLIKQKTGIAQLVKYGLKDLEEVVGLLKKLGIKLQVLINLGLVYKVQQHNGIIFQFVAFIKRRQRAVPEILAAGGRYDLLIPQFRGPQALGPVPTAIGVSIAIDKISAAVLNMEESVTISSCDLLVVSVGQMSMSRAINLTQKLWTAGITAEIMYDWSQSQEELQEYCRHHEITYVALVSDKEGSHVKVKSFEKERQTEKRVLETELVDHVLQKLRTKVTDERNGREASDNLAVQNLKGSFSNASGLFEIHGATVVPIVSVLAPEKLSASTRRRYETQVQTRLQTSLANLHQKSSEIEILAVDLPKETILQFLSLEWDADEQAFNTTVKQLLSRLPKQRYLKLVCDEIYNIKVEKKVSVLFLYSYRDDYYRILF", "experiment": "TR-FRET biochemical assay for inhibition of GCN2 (Example 106, for Example 1-4BB)"}
{"smiles": "COc1ncc(F)cc1S(=O)(=O)Nc1ccc(F)c(-c2ccc3c(C(=O)N[C@@H]4CCN(C)C4)n[nH]c3c2F)c1F", "note": "[Example 3AB, 6-(3-((5-fluoro-2-methoxy-pyridine)-3-sulfonamido)-2,6-difluorophenyl)-7-fluoro-N-((R)-1-methylpyrrolidin-3-yl)-1H-indazole-3-carboxamide]", "values": [{"measurement": "IC50", "setting": "Table 9", "result": "< 500", "unit": "nM"}]}
{"smiles": "COc1ncc(Cl)cc1S(=O)(=O)Nc1cc(C)nc(-c2ccc3c(-c4ncc[nH]4)n[nH]c3c2F)c1F", "note": "[Example 2AO, 5-chloro-N-(3-fluoro-2-(7-fluoro-3-(1H-imidazol-2-yl)-1H-indazol-6-yl)-6-methyl-pyridin-4-yl)-2-methoxy-pyridine-3-sulfonamide]", "values": [{"measurement": "IC50", "setting": "Table 8", "result": "2500 to 10000", "unit": "nM"}]}
{"smiles": "N#Cc1cccc(S(=O)(=O)Nc2ccc(F)c(-c3ccc4c(-c5ncc[nH]5)n[nH]c4c3F)c2F)c1", "note": "[Example 2BQ, 3-cyano-N-(2,4-difluoro-3-(7-fluoro-3-(1H-imidazol-2-yl)-1H-indazol-6-yl)phenyl)-benzenesulfonamide]", "values": [{"measurement": "IC50", "setting": "Table 8", "result": "< 500", "unit": "nM"}]}
{"smiles": "COc1ncc(C#N)cc1S(=O)(=O)Nc1ccc(F)c(-c2ccc3c(C(N)=O)n[nH]c3c2F)c1F", "note": "[Example 3CY, 6-(3-((5-cyano-2-methoxy-pyridine)-3-sulfonamido)-2,6-difluorophenyl)-7-fluoro-1H-indazole-3-carboxamide]", "values": [{"measurement": "IC50", "setting": "Table 9", "result": "500 to 2500", "unit": "nM"}]}
{"smiles": "COc1ncc(Cl)cc1S(=O)(=O)Nc1ccc(F)c(-c2ccc3c(C(=O)Nc4cn[nH]c4)n[nH]c3c2F)c1F", "note": "[Example 3CQ, 6-(3-((5-chloro-2-methoxy-pyridine)-3-sulfonamido)-2,6-difluorophenyl)-7-fluoro-N-(1H-pyrazol-4-yl)-1H-indazole-3-carboxamide]", "values": [{"measurement": "IC50", "setting": "Table 9", "result": "< 500", "unit": "nM"}]}
{"smiles": "COc1ncc(Cl)cc1S(=O)(=O)Nc1ccc(F)c(-c2ccc3c(N)n[nH]c3c2F)c1F", "note": "[Example 7, N-(3-(3-Amino-7-fluoro-1H-indazol-6-yl)-2,4-difluorophenyl)-5-chloro-2-methoxypyridine-3-sulfonamide]", "values": [{"measurement": "IC50", "setting": "Table 8", "result": "500 to 2500", "unit": "nM"}]}
{"smiles": "Cc1ncc(F)cc1S(=O)(=O)Nc1ccc(F)c(-c2ccc3c(C(=O)Nc4cn[nH]c4)n[nH]c3c2F)c1F", "note": "[Example 3DS, 6-(2,6-difluoro-3-((5-fluoro-2-methylpyridine)-3-sulfonamido)phenyl)-7-fluoro-N-(1H-pyrazol-4-yl)-1H-indazole-3-carboxamide]", "values": [{"measurement": "IC50", "setting": "Table 9", "result": "< 500", "unit": "nM"}]}
{"smiles": "COc1ccc(NS(=O)(=O)c2cc(F)cnc2OC)c(F)c1-c1ccc2c(C(N)=O)n[nH]c2c1F", "note": "[Example 3AO, 7-fluoro-6-(2-fluoro-3-((5-fluoro-2-methoxypyridine)-3-sulfonamido)-6-methoxy-phenyl)-1H-indazole-3-carboxamide]", "values": [{"measurement": "IC50", "setting": "Table 9", "result": "500 to 2500", "unit": "nM"}]}
{"smiles": "COc1ncc(Cl)cc1S(=O)(=O)Nc1ccc(F)c(-c2ccc3c(-c4ncc[nH]4)n[nH]c3c2F)c1Cl", "note": "[Example 2T, 5-chloro-N-(2-chloro-4-fluoro-3-(7-fluoro-3-(1H-imidazol-2-yl)-1H-indazol-6-yl)phenyl)-2-methoxypyridine-3-sulfonamide]", "values": [{"measurement": "IC50", "setting": "Table 8", "result": "< 500", "unit": "nM"}]}
{"smiles": "Cc1ncc(F)cc1S(=O)(=O)Nc1cc(F)cc(-c2ccc3c(-c4ncc[nH]4)n[nH]c3c2F)c1F", "note": "[Example 27, N-(2,5-Difluoro-3-(7-fluoro-3-(1H-imidazol-2-yl)-1H-indazol-6-yl)phenyl)-5-fluoro-2-methylpyridine-3-sulfonamide]", "values": [{"measurement": "IC50", "setting": "Table 9", "result": "< 500", "unit": "nM"}]}
{"smiles": "COc1ncncc1S(=O)(=O)Nc1ccc(F)c(-c2ccc3c(C(=O)NCCCO)n[nH]c3c2F)c1F", "note": "[Example 3CL, 6-(2,6-difluoro-3-((4-methoxypyrimidine)-5-sulfonamido)phenyl)-7-fluoro-N-(3-hydroxypropyl)-1H-indazole-3-carboxamide]", "values": [{"measurement": "IC50", "setting": "Table 9", "result": "> 10000", "unit": "nM"}]}
{"smiles": "COc1ncc(Cl)cc1S(=O)(=O)Nc1nccc(-c2ccc3c(-c4ncc[nH]4)n[nH]c3c2F)c1F", "note": "[Example 11, 5-Chloro-N-(3-fluoro-4-(7-fluoro-3-(1H-imidazol-2-yl)-1H-indazol-6-yl)pyridin-2-yl)-2-methoxypyridine-3-sulfonamide]", "values": [{"measurement": "IC50", "setting": "Table 9", "result": "> 10000", "unit": "nM"}]}
{"smiles": "COc1ncccc1S(=O)(=O)Nc1ccnc(-c2ccc3c(-c4ncc[nH]4)n[nH]c3c2F)c1C#N", "note": "[Example 3G, N-(3-cyano-2-(7-fluoro-3-(1H-imidazol-2-yl)-1H-indazol-6-yl)pyridin-4-yl)-2-methoxypyridine-3-sulfonamide]", "values": [{"measurement": "IC50", "setting": "Table 9", "result": "> 10000", "unit": "nM"}]}
{"smiles": "COc1ncc(Cl)cc1S(=O)(=O)Nc1c(F)ccc(-c2ccc3c(-c4ncc[nH]4)n[nH]c3c2F)c1F", "note": "[Example 3A, 5-chloro-N-(2,6-difluoro-3-(7-fluoro-3-(1H-imidazol-2-yl)-1H-indazol-6-yl)phenyl)-2-methoxypyridine-3-sulfonamide]", "values": [{"measurement": "IC50", "setting": "Table 9", "result": "< 500", "unit": "nM"}]}
{"smiles": "Cc1ncccc1S(=O)(=O)Nc1ccc(F)c(-c2ccc3c(-c4ncc[nH]4)n[nH]c3c2F)c1F", "note": "[Example 2, N-(2,4-difluoro-3-(7-fluoro-3-(1H-imidazol-2-yl)-1H-indazol-6-yl)phenyl)-2-methylpyridine-3-sulfonamide]", "values": [{"measurement": "IC50", "setting": "Table 8", "result": "< 500", "unit": "nM"}]}
{"smiles": "Cn1cc(S(=O)(=O)Nc2ccc(F)c(-c3ccc4c(-c5ncc[nH]5)n[nH]c4c3F)c2F)nn1", "note": "[Example 2W, N-(2,4-difluoro-3-(7-fluoro-3-(1H-imidazol-2-yl)-1H-indazol-6-yl)phenyl)-1-methyl-1H-1,2,3-triazole-4-sulfonamide]", "values": [{"measurement": "IC50", "setting": "Table 8", "result": "2500 to 10000", "unit": "nM"}]}
{"smiles": "O=S(=O)(Nc1ccc(F)c(-c2ccc3c(-c4ncc[nH]4)n[nH]c3c2F)c1F)c1cc(Cl)ccc1Cl", "note": "[Example 2AX, 2,5-dichloro-N-(2,4-difluoro-3-(7-fluoro-3-(1H-imidazol-2-yl)-1H-indazol-6-yl)phenyl)-benzenesulfonamide]", "values": [{"measurement": "IC50", "setting": "Table 8", "result": "< 500", "unit": "nM"}]}
{"smiles": "COc1ncc(Cl)cc1S(=O)(=O)Nc1ccc(F)c(-c2ccc3c(-c4ncc[nH]4)n[nH]c3c2)n1", "note": "[Example 2CA]", "values": [{"measurement": "IC50", "setting": "Table 8", "result": "500 to 2500", "unit": "nM"}]}
{"smiles": "Cc1ncc(F)cc1S(=O)(=O)Nc1ccc(F)c(-c2ccc3c(-c4ncc[nH]4)n[nH]c3c2F)c1F", "note": "[Example 2AB, N-(2,4-difluoro-3-(7-fluoro-3-(1H-imidazol-2-yl)-1H-indazol-6-yl)phenyl)-5-fluoro-2-methylpyridine-3-sulfonamide]", "values": [{"measurement": "IC50", "setting": "Table 8", "result": "< 500", "unit": "nM"}]}
{"smiles": "O=S(=O)(Nc1ccc(F)c(-c2ccc3c(-c4ncc[nH]4)n[nH]c3c2F)c1F)c1cncc(Cl)c1", "note": "[Example 2CE]", "values": [{"measurement": "IC50", "setting": "Table 8", "result": "< 500", "unit": "nM"}]}
{"smiles": "COc1ncc(F)cc1S(=O)(=O)Nc1ccc(F)c(-c2ccc3c(C(=O)NCCC(N)=O)n[nH]c3c2F)c1F", "note": "[Example 3AL, N-(3-amino-3-oxopropyl)-6-(2,6-difluoro-3-((5-fluoro-2-methoxypyridine)-3-sulfonamido)phenyl)-7-fluoro-1H-indazole-3-carboxamide]", "values": [{"measurement": "IC50", "setting": "Table 9", "result": "< 500", "unit": "nM"}]}
{"smiles": "COc1ncc(Cl)cc1S(=O)(=O)Nc1ccc(F)c(-c2ccc3c(C(=O)NCCN(C)C)n[nH]c3c2F)c1F", "note": "[Example 2CF, 6-(3-((5-chloro-2-methoxy-pyridine)-3-sulfonamido)-2,6-difluorophenyl)-N-(2-(di-methylamino)ethyl)-7-fluoro-1H-indazole-3-carboxamide]", "values": [{"measurement": "IC50", "setting": "Table 8", "result": "< 500", "unit": "nM"}]}
{"smiles": "COc1ncc(F)cc1S(=O)(=O)Nc1ccc(F)c(-c2ccc3c(C(=O)NCC(CO)CO)n[nH]c3c2F)c1F", "note": "[Example 3AT, 6-(2,6-difluoro-3-((5-fluoro-2-methoxypyridine)-3-sulfonamido)phenyl)-7-fluoro-N-(3-hydroxy-2-(hydroxymethyl)propyl)-1H-indazole-3-carboxamide]", "values": [{"measurement": "IC50", "setting": "Table 9", "result": "< 500", "unit": "nM"}]}
{"smiles": "COc1ncc(Cl)cc1S(=O)(=O)Nc1ccc(F)c(-c2ccc3cn[nH]c3c2)c1F", "note": "[Example 2BY, 5-chloro-N-(2,4-difluoro-3-(1H-indazol-6-yl)-phenyl)-2-methoxypyridine-3-sulfonamide]", "values": [{"measurement": "IC50", "setting": "Table 8", "result": "500 to 2500", "unit": "nM"}]}
{"smiles": "O=S(=O)(Nc1ccc(F)c(-c2ccc3c(-c4ncc[nH]4)n[nH]c3c2F)c1F)c1cccc(Cl)c1", "note": "[Example 2CN, 3-chloro-N-(2,4-difluoro-3-(7-fluoro-3-(1H-imidazol-2-yl)-1H-indazol-6-yl)phenyl)ben-zenesulfonamide]", "values": [{"measurement": "IC50", "setting": "Table 8", "result": "500 to 2500", "unit": "nM"}]}
{"smiles": "O=C(Nc1cnn(CCO)c1)c1n[nH]c2c(F)c(-c3c(F)ccc(NS(=O)(=O)c4cc(F)cc5c4CCC5O)c3F)ccc12", "note": "(stereo not drawn) [Example 4AJ]", "values": [{"measurement": "IC50", "setting": "Table 9", "result": "< 500", "unit": "nM"}]}
{"smiles": "NC(=O)c1n[nH]c2c(F)c(-c3c(F)ccc(NS(=O)(=O)c4cc(F)cc5c4CCC5=O)c3F)ccc12", "note": "[Example 4S]", "values": [{"measurement": "IC50", "setting": "Table 9", "result": "< 500", "unit": "nM"}]}
{"smiles": "COc1ncc(Cl)cc1S(=O)(=O)Nc1ccc(F)c(-c2ccc3c(C(=O)Nc4cnoc4)n[nH]c3c2F)c1F", "note": "[Example 3CV, 6-(3-((5-chloro-2-methoxy-pyridine)-3-sulfonamido)-2,6-difluorophenyl)-7-fluoro-N-(isoxazol-4-yl)-1H-indazole-3-carboxamide]", "values": [{"measurement": "IC50", "setting": "Table 9", "result": "< 500", "unit": "nM"}]}
{"smiles": "O=S(=O)(Nc1ccc(F)c(-c2ccc3c(-c4ncc[nH]4)n[nH]c3c2F)c1F)c1cccnc1", "note": "[Example 2CO, N-(2,4-difluoro-3-(7-fluoro-3-(1H-imidazol-2-yl)-1H-indazol-6-yl)phenyl)pyridine-3-sulfonamide]", "values": [{"measurement": "IC50", "setting": "Table 8", "result": "2500 to 10000", "unit": "nM"}]}
{"smiles": "COc1ncc(Cl)cc1S(=O)(=O)Nc1ccc(F)c(-c2ccc3c(C(=O)NCC(C)C)n[nH]c3c2F)c1F", "note": "[Example 2CJ, 6-(3-((5-chloro-2-methoxy-pyridine)-3-sulfonamido)-2,6-difluorophenyl)-7-fluoro-N-isobutyl-1H-indazole-3-carboxamide]", "values": [{"measurement": "IC50", "setting": "Table 8", "result": "< 500", "unit": "nM"}]}
{"smiles": "COc1nscc1S(=O)(=O)Nc1cc(F)cc(-c2ccc3c(-c4ncc[nH]4)n[nH]c3c2F)c1F", "note": "[Example 3BZ, N-(2,5-difluoro-3-(7-fluoro-3-(1H-imidazol-2-yl)-1H-indazol-6-yl)phenyl)-3-methoxyisothiazole-4-sulfonamide]", "values": [{"measurement": "IC50", "setting": "Table 9", "result": "< 500", "unit": "nM"}]}
{"smiles": "COc1ncc(Cl)cc1S(=O)(=O)Nc1ccc(F)c(-c2ccc3c(C(=O)NC[C@@H]4CCCN4C)n[nH]c3c2F)c1F", "note": "[Example 3E, 6-(3-((5-chloro-2-methoxy-pyridine)-3-sulfonamido)-2,6-difluorophenyl)-7-fluoro-N-(((S)-1-methylpyrrolidin-2-yl)methyl)-1H-indazole-3-carboxamide]", "values": [{"measurement": "IC50", "setting": "Table 9", "result": "< 500", "unit": "nM"}]}
{"smiles": "COc1ncc(CO)cc1S(=O)(=O)Nc1ccc(F)c(-c2ccc3c(C(N)=O)n[nH]c3c2F)c1F", "note": "[Example 3DE, 6-(2,6-difluoro-3-((5-(hydroxylmethyl)-2-methoxy-pyridine)-3-sulfonamido)-phenyl)-7-fluoro-1H-indazole-3-carboxamide]", "values": [{"measurement": "IC50", "setting": "Table 9", "result": "2500 to 10000", "unit": "nM"}]}
